“Also recorded” adds a separate entry of the source.
System: TNBS colitis
Test: TNBS colitis in rats, 2 week series, once daily s.c. treatment
Format: in vivo, Male Sprague-Dawley rats
Method: Treatment was continued on a once daily basis for the following 14 or 28 days. On day 14 (2 week series) or 28 (4 week series), animals were weighed and anaesthetised with pentobarbital. A cardiac puncture was performed to obtain a sample of peripheral blood for the determination of total white blood cell count (WBC) using a coulter counter, and differential count. A midline laparotomy was then performed and the colon exposed and excised. The colon was then opened longitudinally and rinsed clear of […] material. The severity of colonic mucosal injury, diarrhoea, and adhesions was then scored by an observer unaware of the treatment group of the animals using the attached criteria. The length (in cm) and weight of each colonic segment was then determined to allow the determination of the colonic weight/length ratio (as an index of intramural edema and/or fibrosis). Samples of tissue were then taken for biochemical determination of tissue myeloperoxidase (MPO) activity, as an index of granulocyte accumulation using standard biochemical techniques. Samples of tissue were also taken and fixed for subsequent processing for histopathological examination. Differences between the different treatment groups were analysed using either one way analysis of variance (body weight, WBC counts, colonic weight/length ratio, […] activity) or the non-parametric equivalent Kruskall-Wallis test (semiquantitive grading of severity of mucosal injury, adhesions, or diarrhoea). Significance of differences between individual pairs of treatment groups were then assessed using post hoc Tukey's test for parametric data and Dunn's multiple comparison test for non-parametric data. […]

| Compound | total WBC counts (5 mg/kg once daily s.c. for 2 weeks, vs TNBS colitis animals receiving vehicle, p 0.06-0.07, FIG. 1) | severity of colonic adhesions (5 mg/kg once daily s.c., 2 weeks, FIG. 4) | TNBS colitis-associated changes in body weight (weight gain) (5 mg/kg once daily s.c., 2 weeks, initial vs final body weight, FIG. 2) | colonic weight/length ratio (index of colonic edema) (5 mg/kg once daily s.c., 2 weeks, pattern compared with adhesions (no significant reduction, trend towards reduction), FIG. 5) | colonic myeloperoxidase activity (index of granulocyte accumulation) (5 mg/kg once daily s.c., 2 weeks, pattern compared with adhesions (no significant reduction, trend towards reduction), FIG. 7) | TNBS colitis-associated changes in body weight (weight gain) (rat, in vivo) | colonic myeloperoxidase activity (index of granulocyte accumulation) (rat, in vivo) | colonic weight/length ratio (index of colonic edema) (rat, in vivo) | reducing failure to thrive/lack of weight gain (rat, in vivo) | reducing the severity of the leukocytosis (rat, in vivo) | severity of colonic adhesions (rat, in vivo) | severity of mucosal injury (semiquantitative grading scale) (rat, in vivo) | total WBC counts (rat, in vivo) |
| --- | --- | --- | --- | --- | --- | --- | --- | --- | --- | --- | --- | --- | --- |
| C[C@]12C=CC(=O)C=C1CC[C@@H]1[C@@H]2C(=O)C[C@@]2(C)[C@H]1CC[C@]2(O)C(=O)CO [prednisone, reference compound] | reductions in total WBC counts | general trend towards reduction of adhesions | increased weight gains in animals with colitis, with this becoming significant (p<0.05) | Virtually identical patterns | Virtually identical patterns | – | – | – | – | – | – | – | – |
| D--Ala--Ser--Thr--Thr--Thr--Asn--Tyr--Thr--NH2 [Peptide T] | – | – | – | – | – | increased weight gains in animals with colitis, with this becoming significant (p<0.05); also recorded: approaching significance (p values of 0.06 to 0.08) | Virtually identical patterns | Virtually identical patterns | comparable to prednisone | comparable to prednisone | general trend towards reduction of adhesions | may have marginally reduced the severity of mucosal injury | reductions in total WBC counts |
